Laboratory results: patent US6576620B2, “Method of identifying partial adenosine A1 receptor agonists” (CV Therapeutics, Inc., priority 1999, dated 2003)
“Also recorded” adds a separate entry of the source.

System: guinea pig isolated heart
Test: A-V nodal conduction time / S-H interval, isolated perfused heart
Conditions: for second-degree AV block: CPA at 30 nM, Compound 6 at all tested concentrations; for concentration causing an increase of the S-H interval by 13 msec: comparable submaximal responses
Description: This method evaluates the potencies of compounds to cause coronary vasodilation (A2A AdoR response) and to prolong A-V nodal conduction time (A1 AdoR response).
Rats and guinea pigs, of either sex weighing from 230 to 260 grams and 300 to 350 grams, respectively, were used in this study. Animals were anesthetized by peritoneal injection of a cocktail containing ketamine and xylazine (ketamine 100 mg, xylazine 20 mg/ml). The chest was opened and the heart quickly removed. The heart was briefly rinse in ice-cold Krebs-Henseleit solution (see below), and the aorta cannulated. The heart was then perfused at a flow rate of 10 ml/min with modified Krebs-Henseleit (K-H) solution containing NaCl 117.9, KCl 4.5, CaCl2 2.5, MgSO4 1.18, KH2PO4 1.18, pyruvate 2.0 mmol. The K-H solution (pH 7.4) was gassed continuously with 95% O2 and 5% CO2 and warmed to 35±0.50° C. The heart was electrically paced at a fixed cycle length of […] (250 beats/min) using a bipolar electrode place on the left atrium. The electrical stimuli were generated by a Grass stimulator (Model S48, W. Warwick, R.I.) and delivered through a Stimuli Isolation Unit (Model SIU5, Astro-Med, Inc., NY) as square-wave pulses of 3-msec in duration and amplitude of at least twice the threshold intensity.
A1 adenosine receptor-mediated depression of A-V nodal conduction time (negative dromotropic effect) was measured. Atrial and ventricular surface electrograms in rats and His bundle electrogram in guinea pigs, were recorded during constant atrial pacing.
The effects of compounds on coronary conductance (A2A effect) and atrioventricular conduction time or stimulus-to-His-bundle (S-H) interval (A1 effect) was then determined. Hearts were instrumented for continuous recording of coronary perfusion pressure (A2A response) and atrioventricular (A-V) conduction time or S-H interval (A1 response). In each experiment, concentration-response relationship of compounds to increase coronary conductance and to prolong A-V conduction time or S-H interval was determined. After control measurements of CPP and A-V conduction time or S-H interval were made, progressive higher concentrations of the compound studied was administered until maximal coronary vasodilation and A-V nodal conduction time or S-H interval prolongation were achieved.
Guinea pigs (Hartley) of either sex weighing 300-350 g were anaesthetized with methoxyflurane and killed by decapitation. The chest was cut open and the heart was removed quickly and rinsed in ice-cold modified Krebs-Henseleit (K-H) solution. The contents of the modified K-H solution were (in mM): NaCl 117.9, KCl 4.8, CaCl2 2.5, MgSO2 1.18, KH2PO4 1.2, Na2 EDTA 0.5, ascorbic acid 0.14, dextrose 5.5, pyruvic acid (sodium salt) 2.0, and NaHCO3 25. The K-H solution was continuously gassed with 95% oxygen and 5% CO2, and the pH was adjusted to a value of 7.4. To perfuse the heart by the Langendorff method, the transected aorta was slid onto a glass cannula and secured by a ligature. Retrograde perfusion of the aorta was initiated immediately at a constant flow of 10 ml min-′ with modified K-H solution warmed to 36.0±0.5° C. A side port in the cannula was used to connect the perfusion line to a Gould pressure transducer for measurement of coronary perfusion pressure. Coronary perfusion pressure was continuously recorded on a strip chart (Gould RS3400, Cleveland, Ohio) throughout each experiment. Coronary conductance (in ml min^−1 mmHg^−1) was calculated as the ratio of coronary flow (10 ml min^−1) to perfusion pressure (mm Hg). To facilitate the exit of fluid from the left ventricle, the leaflets of the mitral valve were trimmed with fine spring-handled scissors. When appropriate, hearts were paced at a constant rate using external electrodes. […]

| SMILES | S-H interval (CPA 30 nM, control 44±1 msec) [ms] | S-H interval (CPA 10 μM as printed, control 42±1 msec) [ms] | S-H interval (CPA 15 μM as printed, control 42±1 msec) [ms] | S-H interval (CPA 20 μM as printed, control 42±1 msec) [ms] | second-degree AV block | S-H interval Efficacy (Table 5, 2759 = CVT-2759) | concentration causing an increase of the S-H interval by 13 msec | concentration at which effect on S-H interval reached a maximum [µM] | antagonism of S-H interval prolongation induced by CPA (10 μM compound) | increase of the S-H interval (10 μM compound) [ms] | increase of the S-H interval (10 μM compound in the presence of 50 nM CPX) [ms] | decrease of S-H interval (10 μM compound in the presence of iodotubercidin and EHNA) [ms] | S-H interval (10 μM compound in the presence of iodotubercidin and EHNA (80±6 msec before)) [ms] | S-H interval (10 μM compound, control 46±2 msec) [ms] | EC50 (Cavia porcellus, electrically paced heart, read-out: EC50 to increase the S-H interval) [µM] | S-H interval at maximum effect (control 45±1 msec) [ms] | maximum increase of S-H interval (electrically paced heart) [%] | adenosine concentration causing second-degree AV block (presence of 4 μM Compound 6 of Example 2) [µM] | adenosine concentration causing second-degree AV block (presence of 10 μM Compound 6 of Example 2) [µM] |
| --- | --- | --- | --- | --- | --- | --- | --- | --- | --- | --- | --- | --- | --- | --- | --- | --- | --- | --- | --- |
| OC[C@H]1O[C@@H](n2cnc3c(NC4CCCC4)ncnc32)[C@H](O)[C@@H]1O [CPA, N^6-cyclopentyladenosine, reference compound] | 87 ± 2 | 59 ± 4 | 81 ± 6 | 103 ± 8 | second-degree AV block occurred in all hearts; also recorded: caused second-degree AV block in all hearts | Full (Potent) | 10 nM | – | – | – | – | – | – | – | – | – | – | – | – |
| CNC(=O)OC[C@H]1OC(n2cnc3c(N[C@@H]4CCOC4)ncnc32)[C@H](O)[C@@H]1O (stereo partly drawn) [Compound 6 of Example 2, [(5-{6-[((3R)oxolan-3-yl)amino]purin-9-yl}(3 S,2R,4R)-3,4-dihydroxyoxolan-2-yl)methoxy]-N-methylcarboxamide] | – | – | – | – | did not cause second-degree A-V block in any heart | – | 10,000 nM | 30 to 100 | partially reversed the S-H interval prolongation induced by CPA | 12 | 4 | 16 | 64 ± 2 | 58 ± 2 | 3.1 | 60 ± 3 | 33 | 8 | 20 |
